In US5643871A, “Antitumor antibiotics” (Bristol-Meyers Squibb Company, priority 1993, dated 1997):
Starred links: 1 amine or outer side, 2 acyl side, 3 side chain; linkers in the order of their positions; H or OH if unused. Positions of bridges follow the written chain, without caps; N, C: chain ends. Non-standard residues stand in square brackets, D forms with d. Residues, ends and D or L forms follow the SMILES beside them. Chains are numbered I, II in the order given. ξ: configuration not given here. *: point of attachment. X2 = CC(C)C(=O)OC1CC=NN([*:1])C1C(=O)[*:2]; ξNMeVal(3-OH) = CNC(C(=O)O)C(C)(C)O; X1 = COc1ccc2nc(C(=O)*)cnc2c1; Sar = CNCC(=O)O

Key:
[1] = tested on: P388 murine leukemia; experiment: In vivo antitumor activity against P388 leukemia (ip tumor implant / ip drug); conditions: once daily for five days; for % T/C: >=125 considered significant; for Median Survival Time: CDF1 female mice, ip P388;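 as to all read-outs here: dosing started the day after tumor implantation, and %T/C expresses median survival of treated mice relative to the saline-treated control group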
Procedure: CDF1 female mice were implanted intraperitoneally with a tumor inoculum of 10^6 ascites cells of P388, and treated with various doses of test compounds. The compounds were administered intraperitoneally once daily for five consecutive days starting on the day after tumor implantation. The ratio of median survival time for a treated group and that for the saline-treated control group was determined and expressed as %T/C.

[2] = tested on: P388 leukemia; experiment: iv/iv P388 leukemia protocol; format: in vivo, mice; conditions: 0.010 mg/kg/dose iv, once daily for five days; leukemic cells implanted iv
[3] = tested on: Madison 109 (M109) lung carcinoma; conditions: sc tumor implantation, intravenous drug administration on days 2, 6 and 10
Procedure: 299- (1981). Briefly, CDF1 female mice were implanted intraperitoneally (ip) with 0.5 ml or subcutaneously (sc) with 0.1 ml of a 2% brei (w/v) of M109 lung carcinoma. The test compound was administered intraperitoneally (in ip tumor implant groups) or intravenously (in sc tumor implant groups) at various dosage levels to groups of mice on days 2, 6 and 10 after tumor implantation. The median survival time and %T/C values were determined as described above.

[4] = tested on: Madison 109 (M109) lung carcinoma; experiment: Madison 109 lung carcinoma, ip/ip model; format: in vivo, mice; conditions: 0.05 mg/kg/dose ip on days 2, 6 and 10; ip tumor implantation

Structure (SMILES)	Body Weight Change on Day 4 ([1]; dose 0.02 mg/kg/day ip)	% T/C ([1]; dose 0.02 mg/kg/day ip)	Median Survival Time ([1]; dose 0.02 mg/kg/day ip)	Body Weight Change on Day 4 ([1]; dose 0.05 mg/kg/day ip)	% T/C ([1]; dose 0.05 mg/kg/day ip)	Median Survival Time ([1]; dose 0.05 mg/kg/day ip)	Body Weight Change on Day 4 ([1]; dose 0.2 mg/kg/day ip)	% T/C ([1]; dose 0.2 mg/kg/day ip)	Median Survival Time ([1]; dose 0.2 mg/kg/day ip)	Body Weight Change on Day 4 ([1]; dose 0.7 mg/kg/day ip)	% T/C ([1]; dose 0.7 mg/kg/day ip)	Median Survival Time ([1]; dose 0.7 mg/kg/day ip)	% T/C ([1]; dose 2.0 mg/kg/day ip)	Median Survival Time ([1]; dose 2.0 mg/kg/day ip)	further results
CCC(=O)OC1CC=NN2C(=O)C(NC(=O)c3cnc4cc(OC)ccc4n3)COC(=O)C(C(C)(C)O)N(C)C(=O)CN(C)C(=O)CNC(=O)C3C(OC(=O)CC)CC=NN3C(=O)C(NC(=O)c3cnc4cc(OC)ccc4n3)COC(=O)C(C(C)(C)O)N(C)C(=O)CN(C)C(=O)CNC(=O)C12 (stereo not drawn) [BMS-181060]	–	–	–	–	–	–	–	–	–	–	–	–	–	–	Body Weight Change on Day 4 ([1]; dose 0.003 mg/kg/day ip): 1.0; % T/C ([1]; dose 0.003 mg/kg/day ip): 105%; Median Survival Time ([1]; dose 0.003 mg/kg/day ip): 11.5; Body Weight Change on Day 4 ([1]; dose 0.01 mg/kg/day ip): 0.1; % T/C ([1]; dose 0.01 mg/kg/day ip): 127%; Median Survival Time ([1]; dose 0.01 mg/kg/day ip): 14.0; Body Weight Change on Day 4 ([1]; dose 0.03 mg/kg/day ip): 0.0; % T/C ([1]; dose 0.03 mg/kg/day ip): 127%; Median Survival Time ([1]; dose 0.03 mg/kg/day ip): 14.0; Body Weight Change on Day 4 ([1]; dose 0.09 mg/kg/day ip): -0.9; % T/C ([1]; dose 0.09 mg/kg/day ip): 91%; Median Survival Time ([1]; dose 0.09 mg/kg/day ip): 10.0; Body Weight Change on Day 4 ([1]; dose 0.27 mg/kg/day ip): 0.7; % T/C ([1]; dose 0.27 mg/kg/day ip): Tox; Median Survival Time ([1]; dose 0.27 mg/kg/day ip): Tox; % T/C ([1]; dose 0.81 mg/kg/day ip): Tox; Median Survival Time ([1]; dose 0.81 mg/kg/day ip): Tox
COc1ccc2nc(C(=O)NC3COC(=O)C(C(C)(C)O)N(C)C(=O)CN(C)C(=O)CNC(=O)C4C(OC(=O)C(C)C)CC=NN4C(=O)C(NC(=O)c4cnc5cc(OC)ccc5n4)COC(=O)C(C(C)(C)O)N(C)C(=O)CN(C)C(=O)CNC(=O)C4C(OC(=O)C(C)C)CC=NN4C3=O)cnc2c1 (stereo not drawn) [BMY-45012] (I: X1-S[X2]G[Sar][ξNMeVal(3-OH)] / II: X1-S[X2]G[Sar][ξNMeVal(3-OH)]; ester I:1-II:C, I:C-II:1; configuration not given here)	-0.4	115%	11.5	0.3	145%	14.5	-0.7	145%	14.5	-0.1	95%	9.5	–	–	maximum %T/C [2]: 113%; antitumor activity (%T/C) [3]: not significantly active; maximum %T/C [4]: 131%
COc1ccc2nc(C(=O)NC3COC(=O)C(C(C)(C)O)N(C)C(=O)CN(C)C(=O)CNC(=O)C4C(OC(=O)C(C)C)CC=NN4C(=O)C(NC(=O)c4cnc5cc(OC)ccc5n4)COC(=O)C(C(C)(C)O)N(C)C(=O)CN(C)C(=O)CNC(=O)C4C(OC(=O)CC(C)C)CC=NN4C3=O)cnc2c1 (stereo not drawn) [BMY-46404]	-0.1	130%	13.0	0.2	140%	14.0	-0.0	135%	13.5	-0.3	165%	16.5	80%	8.5	Body Weight Change on Day 4 ([1]; dose 2.0 mg/kg/day ip): -0.7
COc1ccc2nc(C(=O)NC3COC(=O)C(C(C)(C)O)N(C)C(=O)CN(C)C(=O)CNC(=O)C4C(OC(=O)CC(C)C)CC=NN4C(=O)C(NC(=O)c4cnc5cc(OC)ccc5n4)COC(=O)C(C(C)(C)O)N(C)C(=O)CN(C)C(=O)CNC(=O)C4C(OC(=O)CC(C)C)CC=NN4C3=O)cnc2c1 (stereo not drawn) [BMY-46405]	-0.8	140%	14.0	-0.8	175%	17.5	-3.4	Tox	Tox	–	Tox	Tox	Tox	Tox	–
CCC(=O)OC1CC=NN2C(=O)C(NC(=O)c3cnc4cc(OC)ccc4n3)COC(=O)C(C(C)(C)O)N(C)C(=O)CN(C)C(=O)CNC(=O)C3C(OC(C)=O)CC=NN3C(=O)C(NC(=O)c3cnc4cc(OC)ccc4n3)COC(=O)C(C(C)(C)O)N(C)C(=O)CN(C)C(=O)CNC(=O)C12 (stereo not drawn) [BMY-46407]	1.0	120%	12.0	-0.0	135%	13.5	-0.01	Tox	Tox	–	Tox	Tox	Tox	Tox	–
CCC(=O)OC1CC=NN2C(=O)C(NC(=O)c3cnc4cc(OC)ccc4n3)COC(=O)C(C(C)(C)O)N(C)C(=O)CN(C)C(=O)CNC(=O)C3C(OC(=O)C(C)C)CC=NN3C(=O)C(NC(=O)c3cnc4cc(OC)ccc4n3)COC(=O)C(C(C)(C)O)N(C)C(=O)CN(C)C(=O)CNC(=O)C12 (stereo not drawn) [BMY-46408]	-0.1	150%	15.0	-0.4	155%	15.5	0.2	155%	15.5	0.3	85%	8.5	Tox	Tox	–
COc1ccc2nc(C(=O)NC3COC(=O)C(C(C)(C)O)N(C)C(=O)CN(C)C(=O)CNC(=O)C4C(OC(=O)C(C)C)CC=NN4C(=O)C(NC(=O)c4cnc5cc(OC)ccc5n4)COC(=O)C(C(C)(C)O)N(C)C(=O)CN(C)C(=O)CNC(=O)C4C(OC(C)=O)CC=NN4C3=O)cnc2c1 (stereo not drawn) [BMY-46572]	–	–	–	–	–	–	–	–	–	–	–	–	–	–	Body Weight Change on Day 4 ([1]; dose 0.003 mg/kg/day ip): 0.4; % T/C ([1]; dose 0.003 mg/kg/day ip): 110%; Median Survival Time ([1]; dose 0.003 mg/kg/day ip): 11.0; Body Weight Change on Day 4 ([1]; dose 0.01 mg/kg/day ip): 0.5; % T/C ([1]; dose 0.01 mg/kg/day ip): 125%; Median Survival Time ([1]; dose 0.01 mg/kg/day ip): 12.5; Body Weight Change on Day 4 ([1]; dose 0.03 mg/kg/day ip): -0.0; % T/C ([1]; dose 0.03 mg/kg/day ip): 140%; Median Survival Time ([1]; dose 0.03 mg/kg/day ip): 14.0
